Tests used:
Assay type in all cases: cell-based, human
[1] = system: CD4+ T-cell clone (PAPc66); test: Peptide promiscuity assay: HLA-DRβ1 homozygous EBV-LcL lines present the peptide to PAPc66, IFNγ and granzyme B measured by ELISA
Source text: FIG. 3. PAP257-271 is a promiscuous MHC class II PAP epitope recognized by the T cell clone PAPc66. (A) The peptide, PAP257-271 (RLQGGVLVNNEILNHM; SEQ ID NO:1), recognized by a CD4+ T-cell clone (PAPc66) in the context of MHC class II, is capable of inducing T-cell activation when presented by lymphoblastoid cell lines representing 9 different HLA-DR serological families (β chain; DR1, DR4, DR7, DR8, DR11, DR12, DR13, DR14, DR15) having over 15 distinct HLA-DRβ1 alleles. […] The assay was set up in 96 well round bottom plates with PAPc66 at 1×10^5 cells/well, PAP257-271 at 2 μg/mL and 2×10^5 EBV-LcL per well in complete RPMI+10% FBS. Each HLA-DR[…]EBV-LcL line, homozygous for the HLA-DRβ1 allele shown, was tested for the ability to present PAP257-271 to PAPc66. An irrelevant PAP peptide and no peptide control were also included. After 48-hour incubation at 37° C. and 5% CO2, supernatants were tested for IFNγ and granzyme B (B) by ELISA. Results are shown with background (no peptide) for each EBV-LcL line and PAPc66 subtracted.
HLA-DRβ1 EBV-LcL lines were purchased from the European Collection of Cell Cultures originating from the 12th International Histocompatibility Workshop (IHW) held in Strasbourg, France. HLA-DR EBV-transformed lymphoblastoid cells were homozygous for the HLA-DRβ1 allele (Table I). EBV-LcL were also generated from various subject PBMC using supernatant from the B95-8 cell line (ATCC, Manassas, Va.) for the expansion and testing of autologous T cell clones.
All assays were set up in triplicate in 96-well round bottom plates with antigen or peptide in cRPMI 1640+10% FBS (Fetal Bovine Serum (Invitrogen, Carlsbad, Calif.)), T cell clones at 1×10^5 cells/well and antigen presenting cells at 2×10^5 cells/well. […]
(§1) IFN[…] production was measured using anti-human IFNγ antibody pairs for ELISA (BD Pharmingen, San Diego, Calif.). […] 2M HCl was added to stop the reaction and plates were read for absorbance at 492 nm on a spectrophotometer. […]

[2] = system: CD4+ T-cell clone (PAPc66); test: MHC Class II blocking assay with autologous EBV-LcL, IFNγ ELISA; conditions: peptide at 2 μg/mL, 48 hours
Method: FIG. 2. PAPc661 is MHC class II restricted. PAPc66 was stimulated with autologous EBV-LcL at 2×10^5 cells/mL and PAP257-271 at 2 μg/mL in the presence of MHC Class II blocking antibodies. The assay was set up in 96 well round bottom plates in complete RPMI media +10% FBS with anti-HLA-DR ♦ (Dendreon) and anti-HLA-DP ▪ or anti HLA-DQ ▴ (Leinco Technologies, Inc., St. Louis, […].) at the concentrations shown. Anti-HLA-A2 antibody (∘) was used as a negative control. PAPc66 was added to all wells at 1×10^5 cells/well and the assay was incubated for 48 hours at 37° C. and 5% CO2. After the incubation, supernatants were harvested and tested for IFNγ by ELISA. IFNγ was not detected for conditions without peptide.
All assays were set up in triplicate in 96-well round bottom plates with antigen or peptide in cRPMI 1640+10% FBS (Fetal Bovine Serum (Invitrogen, Carlsbad, Calif.)), T cell clones at 1×10^5 cells/well and antigen presenting cells at 2×10^5 cells/well. Autologous EBV-LcL were used for antigen presenting cells in specificity assays and assays conducted to show peptide promiscuity using the HLA-DRB1 EBV-LcLs. All assays were incubated for 48 hours at 37° C. with 5% CO2. […]
as §1

[3] = system: CD4+ T-cell clone (PAPc66); test: Antigen specificity of T cell clone PAPc66 with autologous EBV-LcL, IFNγ ELISA
Method: FIG. 1. T cell clone PAPc66 recognizes a naturally processed epitope from PAP. (A) PAP fusion proteins PA2024, CHOPA2024 and hPAPGM and PAP from a baculoviral expression system (iPAP) and mammalian expression system (CHOPAP) were titrated with autologous EBV-LcL and PAPc66. Assay was set up in 96 well round bottom plates with 1×10^5 cells/well of PAPc66, 2×10^5 cells/well EBV-LcL and antigens at 50 μg/mL (black bars), 25 μg/mL (stripe bars) and 12.5 μg/mL (dot bars) in complete RPMI media with 10% FBS. Assay was incubated for 48 hours at 37° C. with 5% CO2 at which time supernatants were harvested and tested for IFNγ by ELISA. (B) To map the specific PAP peptide, chemically synthesized peptides from the PAP sequence were used. These 94 peptides were 15 amino acids in length overlapping by 11 amino acids and were individually tested for the ability to stimulate PAPc66 using autologous EBV-LcL and each peptide at 2 μg/mL in the assay. The assay was set up as in (A) and supernatants were tested for IFNγ by ELISA. […] Supernatants were analyzed for peptide specific IFNγ production by ELISA. […]
as §1

In the case of “RLQGGVLVNEILNHM (residues 257-271 of human prostatic acid phosphatase (PAP), PAP epitope 257-271, Peptide #65, PAP-257-271) [PAP257-271, peptide corresponding to residues 257-271 of the human PAP protein]”, the “cytokine production by clone PAPc66 upon activation with the presented peptide” value ([1]; IFNγ and granzyme B ELISA of supernatants) is reported as “produce IFNγ and granzyme B upon activation”, the “number of distinct HLA-DRβ1 alleles presenting the peptide with T-cell activation” value ([1]; peptide at 2 μg/mL, 48 hours, EBV-LcL homozygous for the HLA-DRβ1 allele) is reported as “over 15” and the “number of different HLA-DR serological families whose lymphoblastoid cell lines present the peptide and induce T-cell activation” value ([1]; peptide at 2 μg/mL, 48 hours, PAPc66 1×10^5 cells/well, 2×10^5 EBV-LcL per well) is reported as 9. For the same sequence, the “MHC class II restriction of presentation (blocking antibodies anti-HLA-DR, -DP, -DQ)” value [2] was “presented both in the context of HLA-DR and HLA-DQ” and the “nature of the epitope recognized by PAPc66 (summary of FIGS. 1-3)” value [3] was “naturally processed, MHC class II-restricted promiscuous epitope”.

— patent publication US8647865B2, “Promiscuous PAP CD4 T cell epitopes” (Dendreon Corporation, priority 2006, dated 2014)
